Measurements: patent US5521197A, “3-<1-alkylenearyl>-4-<1,2,3,6-tetrahydropyridinyl>-and 3-<1-alkylenearyl>-4-piperidinyl-1h-indoles: new 5-HT1F agonists” (Eli Lilly and Company, priority 1994, dated 1996)
Structures can show the parent of a compound that is named as a salt.

These molecules were tested against T1, 5-HT1F receptor (Homo sapiens, UniProt P30939) (assay: Radioligand ([3H]5-HT) binding to the 5-HT1F receptor subtype). Details: not given.
T1 sequence (P30939 1-366): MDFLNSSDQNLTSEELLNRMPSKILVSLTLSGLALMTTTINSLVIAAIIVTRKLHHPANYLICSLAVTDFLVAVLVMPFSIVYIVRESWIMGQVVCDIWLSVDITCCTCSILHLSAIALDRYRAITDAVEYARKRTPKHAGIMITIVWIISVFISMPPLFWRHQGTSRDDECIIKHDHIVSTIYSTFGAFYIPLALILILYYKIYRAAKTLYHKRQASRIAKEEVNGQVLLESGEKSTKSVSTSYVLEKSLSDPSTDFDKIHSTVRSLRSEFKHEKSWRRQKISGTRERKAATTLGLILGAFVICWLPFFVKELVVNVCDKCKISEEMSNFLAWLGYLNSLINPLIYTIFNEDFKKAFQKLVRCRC
Design: expressed in transfected cells; host or cells: Ltk- cells (membranes)
Method: The cells were washed twice with phosphate-buffered saline, scraped from the culture dishes into 5 mL of ice-cold phosphate-buffered saline, and centrifuged at 200×g for 5 minutes at 4° C. The pellet was resuspended in 2.5 mL of ice-cold Tris buffer (20 mM Tris HCl, pH=7.4 at 23° C., 5 mM EDTA) and homogenized with a Wheaton tissue grinder. The lysate was subsequently centrifuged at 200×g for 5 minutes at 4° C. to pellet large fragments which were discarded. The supernatant was collected and centrifuged at 40,000×g for 20 minutes at 4° C. The pellet resulting from this centrifugation was washed once in ice-cold Tris wash buffer and resuspended in a final buffer containing 50 mM Tris HCl and 0.5 mM EDTA, pH=7.4 at 23° C. Membrane preparations were kept on ice and utilized within two hours for the radioligand binding assays.
Saturation studies were conducted using [^3 H]5-HT at 12 different concentrations ranging from 0.5 nM to 100 nM. […] The binding profile of drugs in competition experiments was accomplished using 10-12 concentrations of compound. […] Nonspecific binding was defined in the presence of 10 μM 5-HT. Binding was initiated by the addition of 50 μL membrane homogenates (10-20 μg). The reaction was terminated by rapid filtration through presoaked (0.5% polyethyleneimine) filters using 48R Cell Brandel Harvester (Gaithersburg, Md.). Subsequently, filters were washed for 5 seconds with ice cold buffer (50 mM Tris HCl, pH=7.4 at 4° C.), dried and placed into vials containing 2.5 mL Readi-Safe (Beckman, Fullerton, Calif.) and radioactivity was measured using a Beckman LS 5000TA liquid scintillation counter. […] Binding data was analyzed by computer-assisted nonlinear regression analysis (Accufit and Accucomp, Lunden Software, Chagrin Falls, Ohio). […] All experiments were performed in triplicate. […]
In the case of Fc1ccc2[nH]cc(C3=CCN(CCc4ccccc4)CC3)c2c1 [Example 18, 5-fluoro-3-<1-<2-phenylethyl>-4-<1,2,3,6-tetrahydropyridinyl>>-1H-indolehydrochloride], the Ki is reported as 48.3 nM.
Work on Cc1ccc2[nH]cc(C3=CCN(CCc4ccccc4)CC3)c2c1 [Example 23, 5-methyl-3-<1-<2-phenylethyl>-4-<1,2,3,6-tetrahydropyridinyl>>-1H-indolemaleate] yielded a Ki of 28.3 nM.
COc1ccc2[nH]cc(C3=CCN(CCc4ccccc4)CC3)c2c1 [Example 21, 5-methoxy-3-<1-<2-phenylethyl>-4-<1,2,3,6-tetrahydropyridinyl>>-1H-indolehydrochloride] showed a Ki of 33.9 nM.
In the case of NC(=O)c1ccc2[nH]cc(C3=CCN(CCc4ccccc4)CC3)c2c1 [Example 24, 5-carboxamido-3-<1-<2-phenylethyl>-4-<1,2,3,6-tetrahydropyridinyl>>-1H-indole maleate], the Ki is reported as 23.6 nM.

Same assay, conditions: Table I, [3H]5-HT displacement, transfected Ltk- cell membranes, 37° C.; read-out: 5-HT1F BINDING Ki
Work on NC(=O)c1ccc2[nH]cc(C3CCN(CCc4ccccc4)CC3)c2c1 [Example 31, 5-carboxamido-3-<1-<2-phenylethyl>-4-piperidinyl>-1H-indole hydrochloride] yielded a Ki of 36.9 nM.
C1=C(c2c[nH]c3ccccc23)CCN(CCCOc2ccccc2)C1 [Example 38, 3-<1-<3-phenoxypropyl>-4-<1,2,3,6-tetrahydropyridinyl>>-1H-indolehydrochloride] showed a Ki of 136 nM.
Work on Clc1ccccc1CCN1CCC(c2c[nH]c3ccccc23)CC1 [Example 5, 3-<1-<2-<2-chlorophenyl>ethyl>-4-piperidinyl>-1H-indole hydrochloride] yielded a Ki of 35.2 nM.
For Cc1cccc(CCN2CCC(c3c[nH]c4ccccc34)CC2)c1 [Example 9, 3-<1-<2-<3-methylphenyl>ethyl>-4-piperidinyl>-1H-indole hydrochloride], the Ki was 29.7 nM.
FC(F)(F)c1cccc(CCN2CCC(c3c[nH]c4ccccc34)CC2)c1 [Example 17, 3-<1-<2-<3-trifluoromethylphenyl>ethyl>-4-piperidinyl>-1H -indole] gave a Ki of 16.1 nM.
In the case of FC(F)(F)c1ccccc1CCN1CCC(c2c[nH]c3ccccc23)CC1 [Example 16, 3-<1-<2-<2-trifluoromethylphenyl>ethyl>-4-piperidinyl>-1H-indolehydrochloride], the Ki is reported as 64.3 nM.
c1ccc2c(CCN3CCC(c4c[nH]c5ccccc45)CC3)cccc2c1 [Example 35, 3-<1-<2-<1-naphthyl>ethyl>-4-piperidinyl>-1H-indole] was tested, and the Ki was 76.7 nM.
Molecule COc1ccc(CCN2CCC(c3c[nH]c4ccccc34)CC2)cc1 [Example 33, 3-<1-<2-<4-methoxyphenyl>ethyl>-4-piperidinyl>-1H-indole hydrochloride] has a Ki of 127 nM.
Work on c1ccc(CN2CCC(c3c[nH]c4ccccc34)CC2)cc1 [Example 45, 3-<1-benzyl-4-piperidinyl>-1H -indole] yielded a Ki of 240 nM.
Brc1ccc(CCN2CCC(c3c[nH]c4ccccc34)CC2)cc1 [Example 7, 3-<1-<2-<4-bromophenyl>ethyl>-4-piperidinyl>-1H-indole hydrochloride] was tested, and the Ki was 73.3 nM.
Molecule Cc1ccc2[nH]cc(C3CCN(CCc4ccccc4)CC3)c2c1 [Example 30, 5-methyl-3-<1-<2-phenylethyl>-4-piperidinyl>-1H -indole hydrochloride] has a Ki of 37.8 nM.
In the case of Cc1ccc(CCN2CCC(c3c[nH]c4ccccc34)CC2)cc1 [Example 10, 3-<1-<2-<4-methylphenyl>ethyl>-4-piperidinyl>-1H-indole hydrochloride], the Ki is reported as 67.6 nM.
With Oc1ccc2[nH]cc(C3CCN(CCc4ccccc4)CC3)c2c1 [Example 36, 5-hydroxy-3-<1-<2-phenylethyl>-4-piperidinyl>-1H-indole hydrochloride] the Ki was 2.5 nM.
In the case of c1ccc(CCN2CCC(c3c[nH]c4ccc(OCc5ccccc5)cc34)CC2)cc1 [Example 29, 5-benzyloxy-3-<1-<2-phenylethyl>-4-piperidinyl>-1H-indole hydrochloride], the Ki is reported as 17.2 nM.
In the case of Clc1ccc(CCN2CCC(c3c[nH]c4ccccc34)CC2)cc1 [Example 32, 3-<1-<2-<4-chlorophenyl>ethyl>-4-piperidinyl>-1H-indole hydrochloride], the Ki is reported as 52.1 nM.
With Cc1ccccc1CCN1CCC(c2c[nH]c3ccccc23)CC1 [Example 8, 3-<1-<2-<2-methylphenyl>ethyl>-4-piperidinyl>-1H-indole hydrochloride] the Ki was 45 nM.
In the case of c1ccc(OCCCN2CCC(c3c[nH]c4ccccc34)CC2)cc1 [Example 41, 3-<1-<3-phenoxypropyl>-4-piperidinyl>-1H-indole hydrochloride], the Ki is reported as 91.4 nM.
Work on COc1ccc2[nH]cc(C3CCN(CCc4ccccc4)CC3)c2c1 [Example 28, 5-methoxy-3-<1-<2-phenylethyl>-4-piperidinyl>-1H-indole hydrochloride] yielded a Ki of 39.2 nM.
For c1ccc(COc2ccc(CCN3CCC(c4c[nH]c5ccccc45)CC3)cc2)cc1 [Example 15, 3-<1-<2-<4-benzyloxyphenyl>ethyl>-4-piperidinyl>-1H-indole], the Ki was 844 nM.
Fc1ccccc1CCN1CCC(c2c[nH]c3ccccc23)CC1 [Example 1, 3-<1-<2-<2-fluorophenyl>ethyl>-4-piperidinyl>-1H-indole hydrochloride] gave a Ki of 29.5 nM.
Fc1cccc(CCN2CCC(c3c[nH]c4ccccc34)CC2)c1 [Example 2, 3-<1-<2-<3-fluorophenyl>ethyl>-4-piperidinyl>-1H-indole hydrochloride] was tested, and the Ki was 55.5 nM.
With Fc1ccc(CCN2CCC(c3c[nH]c4ccccc34)CC2)cc1 [Example 3, 3-<1-<2-<4-fluorophenyl>ethyl>-4-piperidinyl>-1H-indole hydrochloride] the Ki was 31 nM.
Molecule Clc1ccc2[nH]cc(C3CCN(CCc4ccccc4)CC3)c2c1 [Example 27, 5-chloro-3-<1-<2-phenylethyl>-4-piperidinyl>-1H-indole hydrochloride] has a Ki of 45.5 nM.
With CCOc1ccc(CCN2CCC(c3c[nH]c4ccccc34)CC2)cc1 [Example 14, 3-<1-<2-<4-ethoxyphenyl>ethyl>-4-piperidinyl>-1H-indole hydrochloride] the Ki was 185 nM.
Work on C1=C(c2c[nH]c3ccccc23)CCN(Cc2ccccc2)C1 [Example 44, 3-<1-benzyl-4-<1,2,3,6-tetrahydropyridinyl>>-1H-indole hydrochloride] yielded a Ki of 396 nM.
COc1ccc(CCN2CCC(c3c[nH]c4ccc(OC)cc34)CC2)cc1 [Example 13, 5-methoxy-3-<1-<2-<4-methoxyphenyl>ethyl>-4-piperidinyl>-1H-indole oxalate] gave a Ki of 128 nM.
Molecule Clc1cccc(CCN2CCC(c3c[nH]c4ccccc34)CC2)c1 [Example 6, 3-<1-<2-<3-chlorophenyl>ethyl>-4-piperidinyl>-1H-indole hydrochloride] has a Ki of 11.7 nM.
For Fc1ccc2[nH]cc(C3CCN(CCc4ccccc4)CC3)c2c1 [Example 25, 5-fluoro-3-<1-<2-phenylethyl>-4-piperidinyl>-1H-indole hydrochloride], the Ki was 29.6 nM.
c1ccc(SCCN2CCC(c3c[nH]c4ccccc34)CC2)cc1 [Example 42, 3-<1-<2-<phenylthio>ethyl>-4-piperidinyl>-1H-indole] showed a Ki of 342 nM.
c1ccc(OCCN2CCC(c3c[nH]c4ccccc34)CC2)cc1 [Example 40, 3-<1-<2-phenoxyethyl>-4-piperidinyl>-1H-indole hydrochloride] gave a Ki of 191 nM.
With c1ccc(CCCCN2CCC(c3c[nH]c4ccccc34)CC2)cc1 [Example 46, 3-<1-<4-phenylbutyl>-4-piperidinyl>-1H-indole hydrochloride] the Ki was 20.4 nM.

Same assay, conditions: read-out: 5-HT1F BINDING, % displacement at 1000 nM
With C1=C(c2c[nH]c3ccc(OCc4ccccc4)cc23)CCN(CCc2ccccc2)C1 [Example 22, 5-benzyloxy-3-<1-<2-phenylethyl>-4-<1,2,3,6-tetrahydropyridinyl>>-1H-indolehydrochloride] the inhibition at 1 µM was 62%.
Molecule C1=C(c2c[nH]c3ccccc23)CCN(CCSc2ccccc2)C1 [Example 39, 3-<1-<2-<phenylthio>ethyl>-4-<1,2,3,6-tetrahydropyridinyl>>-1H-indole] has an inhibition at 1 µM of 34%.
C1=C(c2c[nH]c3ccccc23)CCN(CCc2cccc3ccccc23)C1 [Example 34, 3-<1-<2-<1-naphthyl>ethyl>-4-<1,2,3,6-tetrahydropyridinyl>>-1H-indole] showed an inhibition at 1 µM of 38%.
C1=C(c2c[nH]c3ccccc23)CCN(CCCc2ccccc2)C1 [Example 47, 3-<1-<3-phenylpropyl>-4-<1,2,3,6-tetrahydropyridinyl>>-1H-indolehydrochloride] was tested, and the inhibition at 1 µM was 62%.
